Measurements reported in the supplement of paper PMC8882468.
“And” between values parts separate entries of the source, which are not always exact repeats. Identical values can stand only once.

Assays:
Assay in all cases: CTG-3D luminescence at 96 h relative to day-0 seeding control (ratio to day 0); higher = more growth / less cytotoxicity
HCI-003.E2 = test system: HCI-003.E2 (organoid from an ER-positive breast cancer xenograft)
Protocol: (§1)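 PDxO 3D drug screen (set 2), 8-point dose, 96 h; CTG-3D luminescence normalised to day-0 seeding control (mean of 4 wells each).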

HCI-025 = test system: HCI-025 (organoid from a breast cancer xenograft)
Protocol: as §1

HCI-015 = test system: HCI-015 (organoid from a triple-negative breast cancer xenograft)
Protocol: as §1

HCI-027 = test system: HCI-027 (organoid from a triple-negative breast cancer xenograft)
Protocol: as §1

HCI-010 = test system: HCI-010 (organoid from a breast cancer xenograft)
Protocol: as §1

MDA-MB-231 = test system: MDA-MB-231
Protocol: as §1

CC/C(=C(\c1ccc(O)cc1)c1ccc(OCCN(C)C)cc1)c1ccccc1 [4-hydroxytamoxifen]
CTG-3D luminescence at 96 h
Details	12.5 pM	0.00025 µM	0.005 µM	0.1 µM	1 µM	10 µM	100 µM	625 fM
HCI-003.E2	2.27	2.32	2.33	2.5	1.94	1.18	0.0128	2.7
MDA-MB-231	5.74 and 4.89	5.63 and 4.98	5.56 and 5.21	5.42 and 5.04	5.45 and 5.21	4.78 and 4.53	0.0254 and 0.0304	5.5 and 5.05

CTG-3D luminescence at 96 h
Details	12.5 pM	0.00025 µM	0.005 µM	0.1 µM	1 µM	10 µM	100 µM	625 fM
HCI-010, days in culture: 79	2.04	1.84	1.96	1.93	1.9	1.48	0.00321	2.05
HCI-010, days in culture: 86	1.97	2.48	2.21	2.15	2.19	1.35	0.0109	2.16
HCI-010, days in culture: 102	1.1	1.13	1.07	1.2	1.23	0.95	0.00505	0.88
HCI-010, days in culture: 164	1.4	1.46	1.45	1.45	1.38	0.899	0.00677	1.23
HCI-015, days in culture: 333	1.04	1.94	1.26	1.29	1.39	0.469	0.0144	2.19
HCI-015, days in culture: 355	3.76	3.54	1.5	2.75	0.935	1.57	0.00605	1.84
HCI-015, days in culture: 369	2.01	1.59	2.11	1.32	1.19	0.943	0.00584	1.66
HCI-025, days in culture: 175	1.51	1.63	1.71	2.13	2.44	1.28	0.0136	1.6
HCI-025, days in culture: 189	2.13	1.92	1.2	1.78	1.33	0.709	0.00308	2.68
HCI-025, days in culture: 212	1.57	0.956	1.22	1.48	0.341	1.41	0.0176	1.14
HCI-025, days in culture: 224	2.08	1.8	1.69	1.65	2.16	0.525	0.00432	1.85
HCI-027, days in culture: 145	1.3	2.12	1.24	1.83	1.18	0.699	0.00408	1.73
HCI-027, days in culture: 158	2.04	2.76	2.17	2.08	1.97	1.36	0.00947	4.26
HCI-027, days in culture: 164	1.94	2.01	1.46	2.16	1.19	1.86	0.0151	1.7
HCI-027, days in culture: 176	3.64	3.33	1.45	1.08	2.78	0.382	0.00762	2.5
HCI-027, days in culture: 186	1.39	2.63	2.25	1.45	0.447	0.154	0.0028	2.27
